Results reported in patent publication EP1857440A1, “Novel compounds, isomer thereof, or pharmaceutically acceptable salts thereof as vanilloid receptor antagonist; and pharmaceutical compositions containing the same” (Amorepacific Corporation, priority 2006, dated 2007).

The compounds below were run against T1, vanilloid receptor (Rattus norvegicus, UniProt O35433) (assay: 45Ca influx test (calcium uptake) in primary cultured neonatal rat DRG neurons, capsaicin-stimulated). Conditions: capsaicin 0.5 µM, 45Ca 10 µCi/ml, 10 mins at room temperature, read-out: Antagonist Calcium Uptake Test (IC50).
T1 construct: DRG nerve cells from the primary culture of 2 days were equilibrated by washing 4 times; endogenous in cells; host or cells: primary culture of dorsal root ganglion (DRG) neurons from neonatal SD rats
T1 sequence (O35433 whole entry): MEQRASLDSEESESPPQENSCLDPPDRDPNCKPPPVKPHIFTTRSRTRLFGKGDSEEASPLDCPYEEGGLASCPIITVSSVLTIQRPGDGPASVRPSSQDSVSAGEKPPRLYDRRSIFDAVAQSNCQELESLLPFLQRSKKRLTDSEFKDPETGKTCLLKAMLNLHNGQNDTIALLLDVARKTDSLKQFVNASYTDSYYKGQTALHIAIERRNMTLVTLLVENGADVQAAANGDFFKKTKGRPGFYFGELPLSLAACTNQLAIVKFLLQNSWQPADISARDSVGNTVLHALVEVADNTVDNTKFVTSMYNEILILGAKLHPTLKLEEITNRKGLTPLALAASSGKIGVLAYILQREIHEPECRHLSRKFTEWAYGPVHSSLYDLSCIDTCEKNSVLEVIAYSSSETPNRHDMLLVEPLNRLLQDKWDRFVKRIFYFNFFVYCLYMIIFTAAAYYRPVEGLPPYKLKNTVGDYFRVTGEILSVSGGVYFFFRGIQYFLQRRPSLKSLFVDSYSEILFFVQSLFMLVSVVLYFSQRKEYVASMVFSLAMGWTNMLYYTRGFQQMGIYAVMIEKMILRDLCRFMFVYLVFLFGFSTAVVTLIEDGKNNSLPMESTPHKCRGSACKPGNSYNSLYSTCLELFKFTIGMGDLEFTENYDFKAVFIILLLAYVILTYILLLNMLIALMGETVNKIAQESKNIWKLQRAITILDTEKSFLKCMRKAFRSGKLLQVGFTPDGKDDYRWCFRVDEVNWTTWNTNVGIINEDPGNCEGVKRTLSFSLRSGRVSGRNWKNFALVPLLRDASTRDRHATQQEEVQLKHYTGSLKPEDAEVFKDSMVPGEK
Format: cell-based, SD rats
Experimental: 1) Separation of spinal dorsal root ganglia (DRG) in newborn rats and primary culture thereof
Neonatal (2-3 day old or younger than 2-3 day old) SD rats were put in ice for 5 minutes to anesthetize and disinfected with 70% ethanol. DRG of all part of spinal cord were dissected (Wood et al., 1988, J. Neurosci. 8, pp3208-3220) and collected in DME/F12 medium to which 1.2g/l sodium bicarbonate, 50mg/l gentamycin were added. The DRG were incubated sequentially at 37°C for 30 min in 200 U/ml collagenase and 2.5mg/ml trypsin, separately. The gangiia were washed twice with DME/F12 medium supplemented with 10% horse serum, triturated through a fire-polished Pasteur pipette, filtered through Nitex 80 membrane to obtain single cell suspension and the suspension was washed once more. This was subjected to centrifugation, then resuspended in cell culture medium at certain level of cell density. As the cell culture medium, DME/F12 medium supplemented with 10% horse serum was diluted with identical medium conditioned by C6 glioma cells 2 days on a confluent monolayer (1:1), and NGF (Nerve Growth Factor) was added to adjust 200ng/ml as final concentration. After the cells were grown 2 days in medium where cytosine arabinoside (Ara-C, 100 µM) was added to kill dividing nonneuronal cells, medium was changed to one without Ara-C. The resuspended cells were plated at a density of 1500-2000 neurons/well onto Terasaki plates previously coated with 10 µg/ml poly-D-ornithine.
2) ^45 Ca influx experiments
DRG nerve cells from the primary culture of 2 days were equilibrated by washing 4 times with HEPES (10mM, pH 7.4)-buffered Ca ^2+, Mg^2+-free HBSS (H-HBSS). The solution in each well was removed from the individual well. Medium containing the test compound plus capsaicin (final concentration 0.5 µM) and ^45Ca (final concentration 10 µCi/ml) in H-HBSS was added to each well and incubated at room temperature for 10 mins. Terasaki plates were washed five times with H-HBSS and dried at room temperature. To each well, 0.3% SDS (10 µl) was added to elute ^45Ca. After the addition of scintillation cocktail of into each well, the amount of ^45Ca influx into neuron was measured by counting radioactivity. […] [Table 1] Results of Calcium Influx Test

SMILES	IC50 [nM]
CC(C)(Oc1ccc(C(F)(F)F)cc1)C(=O)NCc1ccc(NS(C)(=O)=O)c(Cl)c1 [Example 21, N-(3-Chloro-4-methanesulfonylamino-benzyl)-2-methyl-2-(4-trifluoromethyl-phenoxy)-propionamide]	> 10000
CS(=O)(=O)Nc1ccc(CNC(=O)COc2ccc(Cl)cc2Cl)cc1F [Example 22, 2-(2,4-Dichloro-phenoxy)-N-(3-fluoro-4-methanesulfonylaminobenzyl)-acetamide]	> 10000
CC(C)(Oc1ccc(C(F)(F)F)cc1)C(=O)NCc1ccc(NS(C)(=O)=O)c(F)c1 [Example 23, N-(3-Fluoro-4-methanesulfonylamino-benzyl)-2-methyl-2-(4-trifluoromethyl-phenoxy)-propionamide]	> 10000
CS(=O)(=O)Nc1ccc(CNC(=O)COc2ccc(Cl)c(Cl)c2)cc1F [Example 25, 2-(3,4-Dichloro-phenoxy)-N-(3-fluoro-4-methanesulfonylaminobenzyl)-acetamide]	2300
CS(=O)(=O)Nc1ccc(CNC(=O)COCc2ccc(C(F)(F)F)cc2)cc1F [Example 26, N-(3-Fluoro-4-methanesulfonylamino-benzyl)-2-(4-trifluoromethylbenzyloxy)-acetamide]	> 10000
CS(=O)(=O)Nc1ccc(CNC(=O)COc2ccc(-c3ccccc3)cc2)cc1F [Example 27, 2-(Biphenyl-4-yloxy)-N-(3-fluoro-4-methanesulfonylamino-benzyl)-acetamide]	> 10000
CS(=O)(=O)Nc1ccc(CNC(=O)COc2ccc(OC(F)(F)F)cc2)cc1F [Example 28, N-(3-Fluoro-4-methanesulfonylaminobenzyl)-2-(4-(trifluoromethoxy)phenoxy)acetamide]	4300
CS(=O)(=O)Nc1ccc(CNC(=O)COc2ccc3c(c2)OCO3)cc1F [Example 29, 2-(Benzo[1,3]dioxol-5-yloxy)-N-(3-fluoro-4-methanesulfonylaminobenzyl)-acetamide]	> 10000
C=Cc1cc(CNC(=O)COc2ccc3c(c2)OCO3)cc(F)c1NS(C)(=O)=O [Example 30, 2-(Benzo[1,3]dioxol-5-yloxy)-N-(3-fluoro-4-methanesulfonylamino-5-vinyl-benzyl)-acetamide]	3400
COc1cc(C)ccc1OCC(=O)NCc1ccc(NS(C)(=O)=O)c(F)c1 [Example 31, N-(3-Fluoro-4-methanesulfonylamino-benzyl)-2-(2-methoxy-4-methyl-phenoxy)-acetamide]	> 10000
COc1cc(Cl)ccc1OCC(=O)NCc1ccc(NS(C)(=O)=O)c(F)c1 [Example 32, 2-(4-Chloro-2-methoxy-phenoxy)-N-(3-fluoro-4methanesulfonylamino-benzyl)-acetamide]	> 10000
CS(=O)(=O)Nc1ccc(CNC(=O)COc2cc(Cl)cc(Cl)c2)cc1F [Example 33, N-(3-Fluoro-4-methanesulfonylaminobenzyl)-2-(3,5-dichlorophenoxy)acetamide]	> 10000
CS(=O)(=O)Nc1ccc(CNC(=O)COc2ccc(Cl)cc2)cc1F [Example 34, 2-(4-Chloro-phenoxy)-N-(3-fluoro-4-methanesulfonylamino-benzyl)-acetamide]	8700
Cc1cc(OCC(=O)NCc2ccc(NS(C)(=O)=O)c(F)c2)ccc1[N+](=O)[O-] [Example 35, N-(3-Fluoro-4-methanesulfonylaminobenzyl)-2-(3-methyl-4-nitrophenoxy)acetamide]	> 10000
CS(=O)(=O)Nc1ccc(CNC(=O)COc2ccc(F)cc2F)cc1F [Example 37, N-(3-Fluoro-4-methanesulfonylaminobenzyl)-2-(2,4-difluorophenoxy)acetamide]	> 10000
CS(=O)(=O)Nc1ccc(CNC(=O)COc2c(I)cc(C(F)(F)F)cc2I)cc1F [Example 38, 2-(2,6-Diiodo-4-trifluoromethyl-phenoxy)-N-(3-fluoro-4-methanesulfonylamino-benzyl)-acetamide]	2600
CS(=O)(=O)Nc1ccc(CNC(=O)COc2ccc(C(F)(F)F)cc2I)cc1F [Example 39, N-(3-Fluoro-4-methanesulfonylamino-benzyl)-2-(2-iodo-4-trifluoromethyl-phenoxy)-acetamide]	> 10000
CCCOc1ccc(OCC(=O)NCc2ccc(NS(C)(=O)=O)c(F)c2)cc1 [Example 41, N-(3-Fluoro-4-methanesulfonylaminobenzyl)-2-(4-n-propoxyphenoxy)acetamide]	> 10000
CS(=O)(=O)Nc1ccc(CNC(=O)COc2cccc(Cl)c2)cc1F [Example 42, N-(3-Fluoro-4-methanesulfonylaminobenzyl)-2-(3-chlorophenoxy)acetamide]	> 10000
CS(=O)(=O)Nc1ccc(CNC(=O)COc2ccc(C(F)(F)F)cc2N2CCOCC2)cc1F [Example 43, N-(3-Fluoro-4-methanesulfonylamino-benzyl)-2-(2-morpholin-4-yl-4-trifluoromethyl-phenoxy)-acetamide]	> 10000

Stronger by IC50, values ahead:

IC50 [nM]	SMILES
1800	CC(C)(C)c1cccc(OCC(=O)NCc2ccc(NS(C)(=O)=O)c(F)c2)c1 [Example 40, N-(3-Fluoro-4-methanesulfonylaminobenzyl)-2-(3-tert-butylphenoxy)acetamide]
1500	CC(C)(C)c1ccc(SCC(=O)NCc2ccc(NS(C)(=O)=O)c(F)c2)cc1 [Example 19, 2-(4-tert-Butyl-phenylsulfanyl)-N-(3-fluoro-4-methanesulfonylaminobenzyl)-acetamide]
1200	CS(=O)(=O)Nc1ccc(CNC(=O)COc2ccc(I)cc2)cc1F [Example 36, N-(3-Fluoro-4-methanesulfonylamino-benzyl)-2-(4-iodo-phenoxy)-acetamide]
760	C[C@H](Oc1ccc(C(C)(C)C)cc1)C(=O)NCc1ccc(NS(C)(=O)=O)c(F)c1 [Example 14, (S)-2-(4-tert-Butylphenoxy)-N-(3-fluoro-4-methanesulfonylaminobenzyl)propionamide]
680	C[C@@H](NC(=S)COc1ccc(C(C)(C)C)cc1)c1ccc(NS(C)(=O)=O)cc1 [Example 15, (R)-2-(4-tert-Butylphenoxy)-N-[1-(4-methanesulfonylaminophenyl)ethyl]thioacetamide]
330	Cc1cc(NS(C)(=O)=O)c(F)cc1CNC(=O)COc1ccc(C(C)(C)C)cc1 [Example 9, 2-(4-tert-Butylphenoxy)-N-(5-fluoro-4-methanesulfonylamino-2-methylbenzyl)acetamide]
210	C[C@@H](N/C(COc1ccc(C(C)(C)C)cc1)=N/C#N)c1ccc(NS(C)(=O)=O)cc1 [Example 17, (R)-2-(4-tert-Butylphenoxy)-N-[1-(4-methanesulfonylaminophenyl)ethyl]-N'-cyanoacetamidine]
190	C#Cc1cc(CNC(=O)CSc2ccc(C(C)(C)C)cc2)cc(F)c1NS(C)(=O)=O [Example 20, 2-(4-tert-Butyl-phenylsulfanyl)-N-(3-ethynyl-5-fluoro-4-methanesulfonylamino-benzyl)-acetamide]
160	Cc1cc(CNC(=O)COc2ccc(C(C)(C)C)cc2)cc(F)c1NS(C)(=O)=O [Example 10, 2-(4-tert-Butylphenoxy)-N-(3-fluoro-4-methanesulfonylamino-5-methylbenzyl) acetamide]
160	C[C@@H](Oc1ccc(C(C)(C)C)cc1)C(=O)NCc1ccc(NS(C)(=O)=O)c(F)c1 [Example 13, (R)-2-(4-tert-Butylphenoxy)-N-(3-fluoro-4-methanesulfonylaminobenzyl)propionamide]
130	CCc1cc(CNC(=O)COc2ccc(C(C)(C)C)cc2)cc(F)c1NS(C)(=O)=O [Example 7, 2-(4-tert-Butylphenoxy)-N-(3-ethyl-5-fluoro-4-methanesulfonylaminobenzyl)acetamide]
110	CC(C)(C)c1ccc(OCC(=O)NCc2ccc(NS(C)(=O)=O)cc2)cc1 [Example 1, 2-(4-tert-Butylphenoxy)-N-(4-methanesulfonylaminobenzyl)acetamide]
110	Cc1cc(CNC(=O)COc2ccc(C(C)(C)C)cc2)cc(Cl)c1NS(C)(=O)=O [Example 8, 2-(4-tert-Butyl-phenoxy)-N-(3-chloro-4-methanesulfonylamino-5-methylbenzyl)acetamide]
96	C[C@@H](NC(=O)COc1ccc(C(C)(C)C)cc1)c1ccc(NS(C)(=O)=O)cc1 [Example 11, (R)-2-(4-tert-Butylphenoxy)-N-[1-(4-methanesulfonylaminophenyl)ethyl]acetamide]
81	C=Cc1cc(CNC(=O)COc2ccc(C(C)(C)C)cc2)ccc1NS(C)(=O)=O [Example 4, 2-(4-tert-Butylphenoxy)-N-(4-methanesulfonylamino-3-vinylbenzyl)acetamide]
